In publication PMC9201508, “Mechanism of CK2 Inhibition by a Ruthenium-Based Polyoxometalate” (Frontiers in Molecular Biosciences, 2022):
Entries after “also recorded” stand apart in the source; their conditions may differ.

Experiments:
CK2 [1] = target: T1, CK2 (Homo sapiens, UniProt P68400); settings: number of kinases; ref Battistutta et al., 2011; cited from earlier work
T1 construct: made in house
T1 sequence (P68400 1-336): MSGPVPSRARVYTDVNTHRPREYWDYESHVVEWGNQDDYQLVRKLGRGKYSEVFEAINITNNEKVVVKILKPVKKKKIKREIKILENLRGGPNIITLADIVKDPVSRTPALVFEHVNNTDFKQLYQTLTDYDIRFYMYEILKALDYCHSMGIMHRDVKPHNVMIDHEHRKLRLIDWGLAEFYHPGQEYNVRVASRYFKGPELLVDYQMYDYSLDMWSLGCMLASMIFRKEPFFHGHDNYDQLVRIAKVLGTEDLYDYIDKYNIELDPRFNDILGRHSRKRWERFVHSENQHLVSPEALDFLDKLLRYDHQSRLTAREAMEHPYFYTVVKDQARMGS

[2] = target: T2, full-length CK2α (FL-CK2α) (Homo sapiens, UniProt P68400); test: Radioactive kinase assay, CK2-tide substrate, full-length CK2α; type: biochemical; settings: CK2-tide substrate 0.1 mM, 20 μM ATP, pH 7.5; mean ± SEM
T2 construct: made in house
Experimental: (§1) For IC50 (concentrations inducing 50% inhibition) analysis, recombinant tetrameric CK2 (α2β2), or C-terminal-deleted CK2α (CK2α^1–336), or full length CK2α (7.5 ng) were incubated with 0.1 mM synthetic peptide substrate RRRADDSDDDDD (CK2-tide), in a phosphorylation buffer containing 50 mM Tris-HCl pH 7.5, 10 mM MgCl2, 20 μM [γ-^33P]ATP (1,000–2,000 cpm/pmol), in a final volume of 20 μl, with increasing concentrations of the inhibitor. In the case of tetrameric CK2, 0.1 M NaCl was also present in the phosphorylation mixture. Controls were performed in the absence of any inhibitor, but with equal volume of vehicle (H2O). Reactions were performed at 30°C for 12 min and stopped by sample absorption on phospho-cellulose papers. Papers were washed three times with 75 mM phosphoric acid and counted in a scintillation counter (PerkinElmer). In the case of casein substrate (used at 0.05 mg/ml concentration), reactions were stopped by the addition of Laemmli loading buffer, samples were analyzed by 11% SDS-PAGE, and radioactive bands were detected and quantified by digital autoradiography (Cyclone plus storage phosphor system, PerkinElmer). IC50 calculation was obtained by analysis of the results with GraphPad Prism 7.0a software.

[3] = tested on: endogenous CK2 in HEK-293T cells; test: Endo-cellular CK2 activity assay (Akt1 phospho-Ser129 Western blot); type: cell-based, human
Experimental: HEK-293T cells (human embryo kidney fibroblasts) were cultured in an atmosphere containing 5% CO2, maintained in DMEM medium (Sigma), supplemented with 10% (v/v) fetal bovine serum (FBS), 2 mM L-glutamine, 100 U/ml penicillin, and […] streptomycin. Cell treatments with Ru4POM were performed in the culture medium. When used, the cationic transfection reagents PEI (Thermo Scientific) or JetOpitmus (Polyplus-transfection) were mixed with Ru4POM and incubated for 1 h at room temperature, before adding the mix to the cells. After 24 h cells were lysed as previously described ([Zanin et al., 2012]). Protein concentration was determined by the Bradford method.
Endo-cellular CK2 activity was evaluated by assessing the phosphorylation state of the CK2 substrate Akt phospho-Ser129 (Abcam) ([Ruzzene et al., 2010]). For this purpose, equal amounts of proteins from treated cells were loaded on 11% SDS-PAGE, blotted on Immobilon-P membranes (Millipore), processed in Western blot (WB), and detected by chemiluminescence.
Quantitation of the signal was obtained by chemiluminescence detection on ImageQuant LAS 500 (GE Healthcare Life Sciences) and analysis with Carestream Molecular Imaging software (Carestream).

CK2 [4] = target: T1, CK2; test: Kinetics analysis (Michaelis-Menten) with increasing CK2-tide or casein; type: biochemical
Experimental: as §1
For kinetics analysis, the assays were performed with increasing concentrations of CK2-tide or casein, in the phosphorylation buffer described above, but with 100 μM ATP concentration.

CK2α = target: T3, CK2α (Homo sapiens, UniProt P68400); test: Isothermal titration calorimetry; type: binding; settings: 25 mM Tris, 500 mM NaCl
T3 construct: Human CK2α (residues 1-336) was produced as previously reported; made in house; host or cells: E. coli BL21-DE3
T3 sequence (P68400 1-336): T1 sequence (P68400 1-336)
Experimental: (§2) Recombinant full-length CK2α and tetrameric CK2 (α2β2) [produced as in ([Venerando et al., 2013])] were kindly provided by Dr. Andrea Venerando (University of Parma, Italy). Human CK2α (residues 1-336) was produced as previously reported ([Papinutto et al., 2012]). Briefly, after expression in E. coli BL21-DE3, the protein was purified by two chromatographic steps, with heparin affinity chromatography (5 ml HiTrap Eparin HP column, GE Healthcare) and size-exclusion chromatography (HiLoad 16/60 Superdex 75 pg column, GE Healthcare). Protein eluted in 25 mM Tris, 500 mM NaCl, 1 mM DTT, pH = 8.5 was concentrated to 13.3 mg/ml, flash-frozen in liquid nitrogen and stored at −80°C.
Isothermal titration calorimetry (ITC) experiments were performed using a Malvern PEAQ-ITC microcalorimeter, at 25°C, with a 270 μl sample cell and a computer controlled microsyringe for titrant injections. CK2α (20–30 μM) and Ru4POM (200–400 μM) samples were in 25 mM Tris, 500 mM NaCl, pH = 8.5. After baseline stabilization, a further delay of 60 s was used before the first injection. In each individual titration, a starting Ru4POM injection of 0.4 μl in 0.8 s was followed by other 12 injections of 3 μl with a duration of 6 s each. A delay of 150 s was applied between each Ru4POM injection. Wiseman plot of integrated data was automatically obtained by software analysis (excluding the heat referred to the first 0.4 μl injection) and then it was fitted by theoretical binding curve using the one site model.

CK2 [5] = target: T1, CK2; test: Radioactive kinase assay with casein as substrate; type: biochemical; settings: casein 0.05 mg/ml replaced CK2-tide
Experimental: as §1

[6] = target: T4, C-terminal-deleted CK2α (CK2α 1-336) (Homo sapiens, UniProt P68400); test: Radioactive kinase assay, CK2-tide substrate, C-terminal truncated CK2α; type: biochemical; settings: CK2-tide substrate 0.1 mM, 20 μM ATP, pH 7.5, mean ± SEM
T4 construct: Human CK2α (residues 1-336) was produced as previously reported; made in house; host or cells: E. coli BL21-DE3
T4 sequence (P68400 1-336): T1 sequence (P68400 1-336)
Experimental: as §2
For IC50 (concentrations inducing 50% inhibition) analysis, recombinant tetrameric CK2 (α2β2), or C-terminal-deleted CK2α (CK2α^1–336), or full length CK2α (7.5 ng) were incubated with 0.1 mM synthetic peptide substrate RRRADDSDDDDD (CK2-tide), in a phosphorylation buffer containing 50 mM Tris-HCl pH 7.5, 10 mM MgCl2, 20 μM [γ-^33P]ATP (1,000–2,000 cpm/pmol), in a final volume of 20 μl, with increasing concentrations of the inhibitor. In the case of tetrameric CK2, 0.1 M NaCl was also present in the phosphorylation mixture. Controls were performed in the absence of any inhibitor, but with equal volume of vehicle (H2O). […]

recombinant CK2α = tested on: T5, recombinant CK2α; test: Radioactive phosphorylation assay at different pH and NaCl concentration; type: biochemical; settings: 5 nM Ru4POM
T5 construct: made in house
Experimental: as §1, with “[…],” for “in a phosphorylation buffer containing 50 mM Tris-HCl pH 7.5,”, “In the case of tetrameric CK2, 0.1 M NaCl was also present in the phosphorylation mixture.” left out

tetrameric CK2 (α2β2) = target: T6, tetrameric CK2 (α2β2) (Homo sapiens, UniProt P68400); test: Radioactive kinase assay, CK2-tide substrate, tetrameric holoenzyme; type: biochemical; settings: 0.1 M NaCl present, mean ± SEM
T6 construct: made in house
Experimental: as §1

[7] = Stability monitored by UV-vis in buffered aqueous environment; type: physicochemical; settings: buffered/saline aqueous environments, up to pH 8.5, over 24 h
Experimental: Na10[Ru4(H2O)4(μ-O)4(μ-OH)2(γ-SiW10O36)2], Ru4POM, was prepared following a published procedure ([Galiano et al., 2021]). Ru4POM identity was confirmed by FTIR, while its stability was monitored by UV-vis, by using a Cary 100 instrument (Varian), in buffered aqueous environment (25 mM Tris, pH 8.5) over 24 h (Supplementary Figure S6).
Suppl. Fig. 6. UV-vis spectrophotometric monitoring of Ru4POM (5µM) stability in 25 mM Tris and
500 mM NaCl (pH=8.5) over time (up to 24 h). A quartz cuvette with path length 1 cm was used.
(1 picture or pasted object on this page, not shown here)

[8] = parameters: method as in Prudent et al., 2008; settings: ref Prudent et al., 2008; cited from earlier work

T2 sequence (P68400 whole entry): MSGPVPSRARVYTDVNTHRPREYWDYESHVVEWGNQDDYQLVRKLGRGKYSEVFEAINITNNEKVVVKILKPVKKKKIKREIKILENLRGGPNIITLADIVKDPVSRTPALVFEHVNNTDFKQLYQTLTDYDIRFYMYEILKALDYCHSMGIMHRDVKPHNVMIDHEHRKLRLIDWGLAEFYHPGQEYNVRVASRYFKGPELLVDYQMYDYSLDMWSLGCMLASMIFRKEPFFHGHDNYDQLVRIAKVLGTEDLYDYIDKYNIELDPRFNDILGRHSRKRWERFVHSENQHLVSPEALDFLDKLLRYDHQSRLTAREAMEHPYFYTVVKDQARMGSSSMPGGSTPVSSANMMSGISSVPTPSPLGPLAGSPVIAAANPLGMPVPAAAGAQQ
T6 sequence (P68400 whole entry): as above
T6 sequence (P67870 2-215 partner limits assumed): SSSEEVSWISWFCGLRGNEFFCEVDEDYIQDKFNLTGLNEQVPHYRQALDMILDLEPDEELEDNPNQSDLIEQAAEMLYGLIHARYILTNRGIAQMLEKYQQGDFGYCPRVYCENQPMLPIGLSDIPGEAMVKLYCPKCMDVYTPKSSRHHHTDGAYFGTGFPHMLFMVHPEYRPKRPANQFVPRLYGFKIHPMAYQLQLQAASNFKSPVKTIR

For O=C(O)c1ccc2c(c1)nc(Nc1cccc(Cl)c1)c1ccncc12 [CX-4945, silmitasertib], the “other kinases inhibited with nanomolar activity” value (CK2 [1]) is given as 12.
Compound (NH4)12[Mo36(NO)4O108(H2O)16] [Mo36POM] has an IC50 [2] of over 1 µM.
Work on “(S,S)-(^ n Bu4N)4[γ-SiW10O36{(C16H9)SO2NH(CH2)3Si}2O] [TBA (L)Trp-SiW10]” yielded an IC50 [2] of 0.0085 ± 0.0004 µM.
Compound “(^ n Bu4N)3H[γ-SiW10O36{(C5H7N2OS)(CH2)4CONH(CH2)3Si}2O] [TBA Biotin-SiW10]” has an IC50 [2] of 0.0053 ± 0.0006 µM.
With “Na10[Ru4(H2O)4(μ-O)4(μ-OH)2(γ-SiW10O36)2] [Ru4POM]” the “CK2 inhibition in intact cells” value ([3]; HEK-293T cells treated with the free compound) was “do not detect any CK2 inhibition”, the “Akt1 phospho-Ser129 phosphorylation” value ([3]; HEK-293T, 10 μM Ru4POM, 24 h, combined with PEI or JetOptimus) was “reduced the phosphorylation of this site” and the cell permeability ([3]; inferred from lack of CK2 inhibition in treated cells) was “too small cell permeability”. For the same compound, the “mode of inhibition towards substrates” value (CK2 [4]; CK2-tide peptide and casein) was “competitive inhibition”, the “CK2-TIDE Vmax” value (CK2 [4]; in presence of 5 nM Ru4POM, 100 μM ATP, ± SEM) was 15019 ± 1635 cpm and the “CASEIN Vmax” value (CK2 [4]; in presence of 18 nM Ru4POM, 100 μM ATP, ± SEM) was 75417 ± 20117 a.u. For the same compound, the stoichiometry (CK2α; pH 8.5) was 1.04 ± 0.02, the ΔG (CK2α; pH 8.5) was -7.763 ± 0.11 kcal/mol and the ΔH (CK2α; pH 8.5) was -7.885 ± 0.339 kcal/mol. For the same compound, the “−TΔS” value (CK2α; pH 8.5) was 0.12 ± 0.581 kcal/mol, the Kd (CK2α; pH 8.5, 25°C, one site model, two experiments, read-out: apparent mean KD) was 2.09 ± 0.36 µM and the IC50 (CK2 [5]) was 0.0185 ± 0.00104 µM. The IC50 [6] was 0.00363 ± 9e-05 µM, the “inhibition of CK2 activity” value (recombinant CK2α; NaCl 0.2 M, CK2-tide) was 29% and the “inhibition of CK2 activity” value (recombinant CK2α; NaCl 0.5 M, CK2-tide) was 22%. For the same compound, the “inhibition of CK2 activity” value (recombinant CK2α; pH 7.5, without NaCl, CK2-tide) was 75%, the “inhibition of CK2 activity” value (recombinant CK2α; pH 8.5, CK2-tide) was 66% and the IC50 [2] was 0.00363 ± 0.00017 µM. For the same compound, the IC50 (tetrameric CK2 (α2β2)) was 0.00557 ± 0.00068 µM and the “stability in aqueous environment” value [7] was “stability was confirmed; also recorded: stable”.
In the case of [P2Mo18O62]^6−, the “chemical stability in an aqueous environment” value [8] is given as “low chemical stability”.
“[γ-SiW10O36{(C5H7N2OS)(CH2)4CONH(CH2)3Si}2O]^4− [Na Biotin-SiW10]” gave an IC50 [2] of 0.0164 ± 0.0013 µM.
“[γ-SiW10O36{(C16H9)SO2NH(CH2)3Si}2O]^4− [Na (D)Trp-SiW10]” gave an IC50 [2] of 0.0128 ± 0.0017 µM.
In the case of “[γ-SiW10O36{(C16H9)SO2NH(CH2)3Si}2O]^4− [Na (L)Trp-SiW10]”, the IC50 [2] is reported as 0.0182 ± 0.0019 µM.
